In US11731976B2, “3-(ethoxydifluoromethyl)-6-(5-fluoro-6-(2,2,2-trifluoroethoxy)pyridin-3-yl)-[1,2,4]triazolo[4,3-a]pyridine as an ion channel modulator” (Praxis Precision Medicines, Inc., priority 2018, dated 2023):

Legend:
human NaV1.6 (hNaV1.6) = target: T1, human NaV1.6 (hNaV1.6) (Homo sapiens, UniProt Q9UQD0); assay: Modulation of late sodium current (INaL), PatchXpress electrophysiology, HEK-293 cells expressing hNaV1.6; format: cell-based; settings: HEK293, late current evoked by 300 nM ATX-II, read-out: NaV 1.6 Assay Data: percent inhibition of INaL at hNaV1.6
T1 construct: expressed in transfected cells; host or cells: HEK-293
T1 sequence (Q9UQD0 whole entry): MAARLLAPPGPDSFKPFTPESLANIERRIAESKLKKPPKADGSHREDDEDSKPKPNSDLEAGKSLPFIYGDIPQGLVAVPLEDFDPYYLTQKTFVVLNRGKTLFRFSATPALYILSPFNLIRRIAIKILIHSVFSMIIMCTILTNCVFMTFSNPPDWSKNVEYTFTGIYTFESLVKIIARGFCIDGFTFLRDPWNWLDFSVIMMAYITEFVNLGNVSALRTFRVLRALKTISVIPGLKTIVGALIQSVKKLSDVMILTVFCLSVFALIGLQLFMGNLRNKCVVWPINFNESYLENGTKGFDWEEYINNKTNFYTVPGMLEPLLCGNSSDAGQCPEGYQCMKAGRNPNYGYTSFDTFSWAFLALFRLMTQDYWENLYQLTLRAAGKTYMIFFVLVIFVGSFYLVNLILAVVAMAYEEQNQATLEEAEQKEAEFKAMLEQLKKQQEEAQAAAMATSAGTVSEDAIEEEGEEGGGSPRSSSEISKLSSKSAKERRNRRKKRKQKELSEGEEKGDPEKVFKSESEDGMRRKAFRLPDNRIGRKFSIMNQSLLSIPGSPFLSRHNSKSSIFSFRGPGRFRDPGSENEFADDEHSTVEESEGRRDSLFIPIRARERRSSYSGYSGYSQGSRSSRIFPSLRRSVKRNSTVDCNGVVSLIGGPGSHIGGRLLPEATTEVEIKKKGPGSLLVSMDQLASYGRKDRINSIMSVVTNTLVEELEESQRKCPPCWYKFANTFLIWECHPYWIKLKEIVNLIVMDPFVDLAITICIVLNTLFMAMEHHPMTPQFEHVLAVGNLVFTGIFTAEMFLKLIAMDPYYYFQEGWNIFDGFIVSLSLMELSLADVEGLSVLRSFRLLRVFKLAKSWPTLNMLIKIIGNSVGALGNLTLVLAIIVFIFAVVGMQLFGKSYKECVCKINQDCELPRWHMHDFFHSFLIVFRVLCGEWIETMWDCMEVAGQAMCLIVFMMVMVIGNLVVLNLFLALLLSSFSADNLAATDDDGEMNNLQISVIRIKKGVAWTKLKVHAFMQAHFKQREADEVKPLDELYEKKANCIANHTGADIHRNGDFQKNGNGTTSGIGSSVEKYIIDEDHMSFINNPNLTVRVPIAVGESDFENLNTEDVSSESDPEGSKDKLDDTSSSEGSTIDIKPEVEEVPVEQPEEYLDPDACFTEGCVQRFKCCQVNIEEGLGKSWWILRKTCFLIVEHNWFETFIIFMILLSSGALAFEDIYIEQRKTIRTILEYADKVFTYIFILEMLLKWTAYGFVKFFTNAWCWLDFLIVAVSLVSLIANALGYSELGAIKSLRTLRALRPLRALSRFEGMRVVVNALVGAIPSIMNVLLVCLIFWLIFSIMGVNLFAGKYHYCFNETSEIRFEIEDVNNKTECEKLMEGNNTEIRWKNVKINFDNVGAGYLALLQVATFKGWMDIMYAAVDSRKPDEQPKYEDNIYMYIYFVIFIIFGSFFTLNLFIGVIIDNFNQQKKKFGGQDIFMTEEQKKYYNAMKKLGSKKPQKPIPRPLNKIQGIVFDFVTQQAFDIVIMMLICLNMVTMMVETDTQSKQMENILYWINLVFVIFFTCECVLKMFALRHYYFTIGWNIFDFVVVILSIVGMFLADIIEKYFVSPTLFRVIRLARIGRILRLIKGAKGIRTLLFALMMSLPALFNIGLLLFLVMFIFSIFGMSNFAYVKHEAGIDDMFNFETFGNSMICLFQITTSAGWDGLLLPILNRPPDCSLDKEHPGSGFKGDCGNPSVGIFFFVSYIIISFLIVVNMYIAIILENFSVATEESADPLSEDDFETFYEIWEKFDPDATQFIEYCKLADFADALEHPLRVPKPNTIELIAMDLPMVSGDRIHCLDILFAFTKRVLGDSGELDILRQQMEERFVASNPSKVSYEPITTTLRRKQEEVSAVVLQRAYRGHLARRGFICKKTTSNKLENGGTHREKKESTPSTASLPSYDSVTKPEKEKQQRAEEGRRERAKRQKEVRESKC
How it was run: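 PatchXpress automated patch clamp on HEK-293 cells expressing recombinant hNaV1.6; late current enhanced with 300 nM ATX-II. INaL evoked by 200 ms steps to 0 mV from about −120 mV at 0.1 Hz, measured as mean amplitude over the final 20 ms. Percent steady-state inhibition versus control current.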

[1] = target: T2, human NaV 1.2 (h NaV 1.2) (Homo sapiens, UniProt Q99250); assay: Modulation of late sodium current (INaL), PatchXpress electrophysiology, HEK-293 cells expressing hNaV1.2; format: cell-based; settings: HEK293, read-out: NaV 1.2 Assay Data: percent inhibition of INaL at hNaV1.2
T2 construct: expressed in transfected cells; host or cells: HEK-293
T2 sequence (Q99250 whole entry): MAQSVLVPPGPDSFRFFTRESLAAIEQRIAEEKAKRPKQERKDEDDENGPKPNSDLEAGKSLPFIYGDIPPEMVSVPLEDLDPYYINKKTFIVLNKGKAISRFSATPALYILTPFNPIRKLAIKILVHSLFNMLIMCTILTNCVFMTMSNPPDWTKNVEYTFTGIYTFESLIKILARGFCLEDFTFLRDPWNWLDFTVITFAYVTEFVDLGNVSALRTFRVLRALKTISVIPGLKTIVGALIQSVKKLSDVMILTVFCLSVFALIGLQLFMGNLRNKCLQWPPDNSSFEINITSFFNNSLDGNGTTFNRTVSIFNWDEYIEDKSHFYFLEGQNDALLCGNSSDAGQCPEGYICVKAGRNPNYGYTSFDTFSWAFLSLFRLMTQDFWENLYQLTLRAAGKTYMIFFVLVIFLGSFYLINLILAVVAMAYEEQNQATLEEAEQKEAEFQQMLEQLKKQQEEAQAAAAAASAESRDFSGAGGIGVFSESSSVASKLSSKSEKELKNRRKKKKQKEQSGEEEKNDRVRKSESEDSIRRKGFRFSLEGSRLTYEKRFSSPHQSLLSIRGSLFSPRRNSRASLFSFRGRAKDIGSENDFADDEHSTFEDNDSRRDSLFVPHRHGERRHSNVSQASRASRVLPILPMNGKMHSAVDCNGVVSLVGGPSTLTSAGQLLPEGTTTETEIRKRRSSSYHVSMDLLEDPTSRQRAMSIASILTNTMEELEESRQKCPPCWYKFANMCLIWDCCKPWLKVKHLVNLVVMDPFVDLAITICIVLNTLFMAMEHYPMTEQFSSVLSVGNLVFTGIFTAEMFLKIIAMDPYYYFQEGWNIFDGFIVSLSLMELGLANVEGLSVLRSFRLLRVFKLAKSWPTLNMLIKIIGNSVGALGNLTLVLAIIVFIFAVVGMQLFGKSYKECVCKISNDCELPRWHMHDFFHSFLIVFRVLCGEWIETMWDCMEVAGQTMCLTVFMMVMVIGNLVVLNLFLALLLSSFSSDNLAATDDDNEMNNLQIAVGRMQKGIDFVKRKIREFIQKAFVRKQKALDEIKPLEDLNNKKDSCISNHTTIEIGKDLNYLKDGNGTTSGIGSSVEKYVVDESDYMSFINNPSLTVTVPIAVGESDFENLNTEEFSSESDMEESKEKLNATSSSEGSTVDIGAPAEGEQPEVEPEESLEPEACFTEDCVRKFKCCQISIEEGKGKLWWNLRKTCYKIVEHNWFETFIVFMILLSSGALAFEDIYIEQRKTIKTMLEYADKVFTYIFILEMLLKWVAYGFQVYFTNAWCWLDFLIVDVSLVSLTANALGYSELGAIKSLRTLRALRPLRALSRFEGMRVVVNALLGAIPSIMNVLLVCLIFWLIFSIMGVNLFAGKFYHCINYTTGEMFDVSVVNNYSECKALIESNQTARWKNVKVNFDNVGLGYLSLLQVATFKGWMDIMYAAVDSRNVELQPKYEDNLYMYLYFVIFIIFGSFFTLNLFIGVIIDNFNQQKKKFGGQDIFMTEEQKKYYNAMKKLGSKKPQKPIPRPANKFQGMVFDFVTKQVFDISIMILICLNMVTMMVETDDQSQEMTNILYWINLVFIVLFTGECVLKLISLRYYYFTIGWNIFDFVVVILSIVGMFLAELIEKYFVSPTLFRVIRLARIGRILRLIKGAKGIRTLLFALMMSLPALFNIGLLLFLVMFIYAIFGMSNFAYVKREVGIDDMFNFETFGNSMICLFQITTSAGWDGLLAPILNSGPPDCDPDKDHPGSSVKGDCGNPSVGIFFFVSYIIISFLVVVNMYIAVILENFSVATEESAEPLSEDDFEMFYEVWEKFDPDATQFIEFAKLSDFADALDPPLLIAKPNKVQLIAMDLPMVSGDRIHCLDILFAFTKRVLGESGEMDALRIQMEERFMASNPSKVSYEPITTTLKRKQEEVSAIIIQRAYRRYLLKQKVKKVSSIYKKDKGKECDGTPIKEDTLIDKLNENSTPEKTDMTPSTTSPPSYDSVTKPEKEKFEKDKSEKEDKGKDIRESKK

hNaV1.1-WT = target: T3, hNaV1.1-WT (Homo sapiens, UniProt P35498); assay: Voltage step activated sodium current (Peak INa), PatchXpress, HEK-293; format: cell-based; settings: percent inhibition measured at 1 μM; step to 0 mV from half-inactivation holding potential
T3 construct: expressed in transfected cells; host or cells: HEK-293
Description: (§1) Functional characterization of exemplary compounds to modulate INa expressed by various human isoforms and disease-causing mutant voltage-gated sodium channels was accomplished using the PatchXpress high throughput electrophysiology platform (Molecular Devices, Sunnyvale, Calif.). HEK-293 cells expressing a recombinant, human NaV1.X sodium channel (either hNaV1.6-WT, hNaV1.6-R223G, hNaV1.6-N984K, hNaV1.6-N1768D, hNaV1.1-WT, hNaV1.2-WT, hNaV1.5-WT, hNaV1.7-WT, or hNaV1.8-WT) were grown in DMEM/high-glucose Dulbecco's modified, 10% FBS, 2 mM sodium pyruvate, 10 mM HEPES and 400 μg/mL G418. Cells were grown to 50%-80% confluency prior to harvesting. Trypsinized cells were washed, allowed to recover for 1 hour and then resuspended in extracellular recording solution at a concentration of 1×10^6 cells/ml. The onboard liquid handling facility of the PatchXpress was used for dispensing cells and applying test compounds. INa amplitude and stability were determined by analyzing the peak current amplitude.
(§2) Peak INa was evoked by depolarizing steps to 0 mV for 20 ms from a holding potential which evoked half-inactivation (e.g., −60 mV) at a frequency of 0.1 Hz. The voltage of half-inactivation was determined for each cell using a 5 sec prepulse to membrane potentials between −120 mV and −20 mV followed immediately by a voltage step to a fully activating membrane voltage (e.g., 0 mV). Following steady state block with exemplary compounds (e.g., as described herein), the degree of inhibition was measured using the average of three consecutive voltage steps. Percent steady-state inhibition of INa was calculated as: [(INa_compound)/(INa_control)]*100, where INa_compound and INa_control represent INa recorded in the presence or absence of compound, respectively.
(§3) In this table, “A” indicates inhibition between less than 0% to 50% and “B” indicates inhibition of greater than 50% and N/A indicates the compound was not tested.

hNaV1.2-WT = target: T4, hNaV1.2-WT (Homo sapiens, UniProt Q99250); assay: as above; format: cell-based; settings: percent inhibition measured at 1 μM; step to 0 mV from half-inactivation holding potential
T4 construct: expressed in transfected cells; host or cells: HEK-293
T4 sequence (Q99250 whole entry): as above
Description: as §1, §2, §3

hNaV1.5-WT = target: T5, hNaV1.5-WT (Homo sapiens, UniProt Q14524); assay: as above; format: cell-based; settings: HEK293; percent inhibition measured at 1 μM; step to 0 mV from half-inactivation holding potential
T5 construct: expressed in transfected cells; host or cells: HEK-293
Description: as §1, §2, §3

hNaV1.6-WT = target: T6, hNaV1.6-WT (Homo sapiens, UniProt Q9UQD0); assay: as above; format: cell-based; settings: HEK293; percent inhibition measured at 1 μM; step to 0 mV from half-inactivation holding potential
T6 construct: expressed in transfected cells; host or cells: HEK-293
T6 sequence (Q9UQD0 whole entry): as the sequence (Q9UQD0 whole entry) above
Description: as §1, §2, §3

hNaV1.7-WT = target: T7, hNaV1.7-WT (Homo sapiens, UniProt Q15858); assay: as above; format: cell-based; settings: HEK293; percent inhibition measured at 1 μM; step to 0 mV from half-inactivation holding potential
T7 construct: expressed in transfected cells; host or cells: HEK-293
Description: as §1, §2, §3

hNaV1.8-WT = target: T8, hNaV1.8-WT (Homo sapiens, UniProt Q9Y5Y9); assay: as above; format: cell-based; settings: HEK293; percent inhibition measured at 1 μM; step to 0 mV from half-inactivation holding potential
T8 construct: expressed in transfected cells; host or cells: HEK-293
Description: as §1, §2, §3

hNaV1.6-N1768D = target: T9, hNaV1.6-N1768D (Homo sapiens, UniProt Q9UQD0, N1768D); assay: Voltage ramp activated sodium current (Ramp INa), PatchXpress, HEK-293; format: cell-based; settings: HEK293; percent inhibition of enhanced ramp current at 1 μM; +600 mv/sec ramp from −100 mV to +20 mV
T9 construct: expressed in transfected cells; host or cells: HEK-293
T9 sequence (Q9UQD0 whole entry N1768D): as the sequence (Q9UQD0 whole entry) above, with N1768D counted along it
Description: as §1
(§4) The Nav1.6 mutant channels (hNaV1.6-R223G, hNaV1.6-N984K, hNaV1.6-N1768D) express an enhanced sodium current in response to a ramp voltage depolarization when compared to the wild-type hNaV1.6-WT. This enhanced, depolarizing ramp current is thought to contribute to enhanced neuronal excitability. The degree of block with exemplary compounds (e.g., as described herein) was measured using a +600 mv/sec voltage ramp from −100 mV to +20 mV. The ramp current was defined as the area of the current measured between −55 mV and +15 mV. Following steady state block with exemplary compounds (e.g., as described herein) at 1 μM, a Na^+ free solution containing an impermeant cation (e.g., Choline or NMDG) was added for determination of the baseline current level for offline subtraction. Percent inhibition of enhanced ramp current was calculated as (compound−baseline)/(control−baseline)*100, where control represents the ramp current recorded in the absence of compound. In this table, “A” indicates inhibition between less than 0% to 50% and “B” indicates inhibition of greater than 50% and N/A indicates the compound was not tested.

hNaV1.6-N984K = target: T10, hNaV1.6-N984K (Homo sapiens, UniProt Q9UQD0, N984K); assay: as above; format: cell-based; settings: HEK293; percent inhibition of enhanced ramp current at 1 μM; +600 mv/sec ramp from −100 mV to +20 mV
T10 construct: expressed in transfected cells; host or cells: HEK-293
T10 sequence (Q9UQD0 whole entry N984K): as the sequence (Q9UQD0 whole entry) above, with N984K counted along it
Description: as §1, §4

hNaV1.6-R223G = target: T11, hNaV1.6-R223G (Homo sapiens, UniProt Q9UQD0, R223G); assay: as above; format: cell-based; settings: HEK293; percent inhibition of enhanced ramp current at 1 μM; +600 mv/sec ramp from −100 mV to +20 mV
T11 construct: expressed in transfected cells; host or cells: HEK-293
T11 sequence (Q9UQD0 whole entry R223G): as the sequence (Q9UQD0 whole entry) above, with R223G counted along it
Description: as §1, §4

Male CD-1 mice = assay: Maximal Electroshock induced Seizure (MES) assay in mice; format: in vivo, mouse; settings: 35% HPCD, recorded up to 60 seconds post stimulus
Description: Male CD-1 mice, weighing 25-35 g were assessed in the Maximal Electroshock induced Seizure (MES) assay. Briefly, mice were dosed with compound (n=12/group) according to the dosing parameters in Table 20 and the latency to induce tonic hind limb extension following transauricular electrical stimulation (50 Hz, 50 mA, 0.8 sec duration, pulse width of 10 ins) was recorded up to 60 seconds post stimulus.

[2] = 1 mg/kg PO, pre-treatment 30 min
[3] = 3 mg/kg PO, pre-treatment 30 min
[4] = 10 mg/kg PO, pre-treatment 30 min

SMILES	inhibition at 1 µM (human NaV1.6 (hNaV1.6))	inhibition at 1 µM [1]	hNav1.1 Peak INa (hNaV1.1-WT)	hNav1.2 Peak INa (hNaV1.2-WT)	inhibition at 1 µM (hNaV1.5-WT)	inhibition at 1 µM (hNaV1.6-WT)	inhibition at 1 µM (hNaV1.7-WT)	inhibition at 1 µM (hNaV1.8-WT)	inhibition at 1 µM (hNaV1.6-N1768D)	inhibition at 1 µM (hNaV1.6-N984K)	inhibition at 1 µM (hNaV1.6-R223G)	Mean latency to tonic extension (Male CD-1 mice; [2])	Mean latency to tonic extension (Male CD-1 mice; [3])	Mean latency to tonic extension (Male CD-1 mice; [4])	Mean latency to tonic extension (Male CD-1 mice; 1 mg/kg PO, pre-treatment 120 min)	Mean latency to tonic extension (Male CD-1 mice; 3 mg/kg PO, pre-treatment 120 min)
COC(F)(F)c1nnc2cnc(-c3cnc(OCC(F)(F)F)c(F)c3)cn12 [Compound 53, 3-[difluoro(methoxy)methyl]-6-[5-fluoro-6-(2,2,2-trifluoroethoxy)-3-pyridyl]-[1,2,4]triazolo[4,3-a]pyrazine]	> 70%	> 70%	B (inhibition of greater than 50%)	A (inhibition between less than 0% to 50%)	> 50%	> 50%	> 50%	> 50%	> 50%	< 50%	< 50%	36.4 s	60 s	60 s	–	–
COC(F)(F)c1nnc2cnc(-c3ccc(O[C@H](C)C(F)(F)F)nc3)cn12 [Compound 62, 3-[difluoro(methoxy)methyl]-6-[6-[(1R)-2,2,2-trifluoro-1-methyl-ethoxy]-3-pyridyl]-[1,2,4]triazolo[4,3-a]pyrazine]	> 70%	> 70%	B (inhibition of greater than 50%)	B (inhibition of greater than 50%)	> 50%	> 50%	> 50%	> 50%	> 50%	> 50%	< 50%	17.6 s	46.1 s	–	–	–
COC(F)(F)c1nnc2cnc(-c3ccc(OC(C)(C)C(F)(F)F)nc3)cn12 [Compound 56, 3-[difluoro(methoxy)methyl]-6-[6-(2,2,2-trifluoro-1,1-dimethyl-ethoxy)-3-pyridyl]-[1,2,4]triazolo[4,3-a]pyrazine]	> 70%	> 70%	B (inhibition of greater than 50%)	B (inhibition of greater than 50%)	> 50%	> 50%	> 50%	> 50%	> 50%	> 50%	< 50%	–	–	–	–	–
COC(F)(F)c1nnc2cnc(-c3cnc(OC4(C(F)(F)F)CCC4)c(F)c3)cn12 [Compound 11, 3-[difluoro(methoxy)methyl]-6-[5-fluoro-6-[1-(trifluoromethyl)cyclobutoxy]-3-pyridyl]-[1,2,4]triazolo[4,3-a]pyrazine]	> 70%	–	B (inhibition of greater than 50%)	–	> 50%	> 50%	> 50%	> 50%	> 50%	> 50%	< 50%	–	–	–	–	–
CCOC(F)(F)c1nnc2ccc(-c3cnc(OCC(F)(F)F)c(F)c3)nn12 [Compound 16, 3-[ethoxy(difluoro)methyl]-6-[5-fluoro-6-(2,2,2-trifluoroethoxy)-3-pyridyl]-[1,2,4]triazolo[4,3-b]pyridazine]	> 70%	> 70%	–	–	–	–	–	–	–	–	–	–	–	–	–	–
COC(F)(F)c1nnc2cnc(-c3cnc(O[C@@H](C)C(F)(F)F)c(F)c3)cn12 [Compound 6B, 3-[difluoro(methoxy)methyl]-6-[5-fluoro-6-[(1S)-2,2,2-trifluoro-1-methyl-ethoxy]-3-pyridyl]-[1,2,4]triazolo[4,3-a]pyrazine]	> 70%	–	B (inhibition of greater than 50%)	B (inhibition of greater than 50%)	> 50%	> 50%	> 50%	> 50%	> 50%	> 50%	> 50%	–	–	–	17.3 s	50.5 s
CCOC(F)(F)c1nnc2cnc(-c3cnc(OCC(F)(F)F)c(F)c3)cn12 [Compound 10]	> 70%	> 70%	B (inhibition of greater than 50%)	A (inhibition between less than 0% to 50%)	> 50%	> 50%	> 50%	> 50%	> 50%	< 50%	> 50%	7.9 s	36.3 s	55.2 s	–	–
COC(F)(F)c1nnc2cnc(-c3ccc(O[C@@H](C)C(F)(F)F)nc3)cn12 [Compound 59, 3-[difluoro(methoxy)methyl]-6-[6-[(1S)-2,2,2-trifluoro-1-methyl-ethoxy]-3-pyridyl]-[1,2,4]triazolo[4,3-a]pyrazine]	> 70%	> 70%	B (inhibition of greater than 50%)	B (inhibition of greater than 50%)	> 50%	> 50%	> 50%	> 50%	> 50%	> 50%	> 50%	–	–	–	–	–
CCOC(F)(F)c1nnc2ccc(-c3cnc(OCC(F)(F)F)c(F)c3)cn12 [Compound 3, 3-[ethoxy(difluoro)methyl]-6-[5-fluoro-6-(2,2,2-trifluoroethoxy)-3-pyridyl]-[1,2,4]triazolo[4,3-a]pyridine]	> 70%	–	B (inhibition of greater than 50%)	–	> 50%	> 50%	> 50%	> 50%	> 50%	> 50%	> 50%	–	60 s	60 s	–	–
